In patent US20110142802A1, “FUNGICIDAL COMPOSITIONS” (SYNGENTA CROP PROTECTION, INC., priority 2008, published 2011):
Several values for one entry are separate records, joined by “and”; a condition that tells them apart may be missing. Equal values may be shown once.

Assays:
[1] = tested on: Alternaria solani (ALTESO); assay: Growth inhibition of Alternaria solani in nutrient broth, 96-well microtiter plate, photometric; format: cell-based; details: 3 days
Source text: A synergistic effect exists whenever the action of an active ingredient combination is greater than the sum of the actions of the individual components. The action to be expected E for a given active ingredient combination obeys the so-called COLBY formula and can be calculated as follows (COLBY, S. R. “Calculating synergistic and antagonistic responses of herbicide combination”. Weeds, Vol. 15, pages 20-22; 1967): ppm=milligrams of active ingredient (=a.i.) per liter of spray mixture X=% action by active ingredient A) using p ppm of active ingredient Y=% action by active ingredient B) using q ppm of active ingredient. According to COLBY, the expected (additive) action of active ingredients A)+B) using p+q ppm of active ingredient is If the action actually observed (O) is greater than the expected action (E), then the action of the combination is super-additive, i.e. there is a synergistic effect. In mathematical terms, synergism corresponds to a positive value for the difference of (O-E). In the case of purely complementary addition of activities (expected activity), said difference (O-E) is zero. A negative value of said difference (O-E) signals a loss of activity compared to the expected activity. Alternaria solani ([…]): Conidia harvested from a freshly grown colony of the fungus are directly mixed into nutrient broth (PDB potato dextrose broth). After placing a (DMSO) solution of the test compounds into a microtiter plate (96-well format) the nutrient broth containing the fungal spores is added.

[2] = tested on: Mycosphaerella graminicola (Septoria tritici; SEPTTR); assay: Growth inhibition of Mycosphaerella graminicola in nutrient broth, 96-well microtiter plate, photometric; format: cell-based; details: 4 days
Source text: A synergistic effect exists whenever the action of an active ingredient combination is greater than the sum of the actions of the individual components. The action to be expected E for a given active ingredient combination obeys the so-called COLBY formula and can be calculated as follows (COLBY, S. R. “Calculating synergistic and antagonistic responses of herbicide combination”. Weeds, Vol. 15, pages 20-22; 1967): ppm=milligrams of active ingredient (=a.i.) per liter of spray mixture X=% action by active ingredient A) using p ppm of active ingredient Y=% action by active ingredient B) using q ppm of active ingredient. According to COLBY, the expected (additive) action of active ingredients A)+B) using p+q ppm of active ingredient is If the action actually observed (O) is greater than the expected action (E), then the action of the combination is super-additive, i.e. there is a synergistic effect. In mathematical terms, synergism corresponds to a positive value for the difference of (O-E). In the case of purely complementary addition of activities (expected activity), said difference (O-E) is zero. A negative value of said difference (O-E) signals a loss of activity compared to the expected activity. Mycosphaerella graminicola (Septoria tritici; […]): Conidia of the fungus from cryogenic storage are directly mixed into nutrient broth (PDB potato dextrose broth). After placing a (DMSO) solution of the test compounds into a microtiter plate (96-well format) the nutrient broth containing the fungal spores is added.

[3] = tested on: Mycosphaerella arachidis (Cercospora arachidicola; MYCOAR); assay: Growth inhibition of Mycosphaerella arachidis in nutrient broth, 96-well microtiter plate, photometric at 620 nm; format: cell-based; details: 8 days
Source text: A synergistic effect exists whenever the action of an active ingredient combination is greater than the sum of the actions of the individual components. The action to be expected E for a given active ingredient combination obeys the so-called COLBY formula and can be calculated as follows (COLBY, S. R. “Calculating synergistic and antagonistic responses of herbicide combination”. Weeds, Vol. 15, pages 20-22; 1967): ppm=milligrams of active ingredient (=a.i.) per liter of spray mixture X=% action by active ingredient A) using p ppm of active ingredient Y=% action by active ingredient B) using q ppm of active ingredient. According to COLBY, the expected (additive) action of active ingredients A)+B) using p+q ppm of active ingredient is If the action actually observed (O) is greater than the expected action (E), then the action of the combination is super-additive, i.e. there is a synergistic effect. In mathematical terms, synergism corresponds to a positive value for the difference of (O-E). In the case of purely complementary addition of activities (expected activity), said difference (O-E) is zero. A negative value of said difference (O-E) signals a loss of activity compared to the expected activity. Mycosphaerella arachidis (Cercospora arachidicola; MYCOAR): Conidia of the fungus from cryogenic storage are directly mixed into nutrient broth (PDB potato dextrose broth). After placing a (DMSO) solution of the test compounds into a microtiter plate (96-well format) the nutrient broth containing the fungal spores is added.

[4] = tested on: Pyrenophora teres (PYRNTE); assay: Growth inhibition of Pyrenophora teres in nutrient broth, 96-well microtiter plate, photometric; format: cell-based; details: 3 days
Source text: A synergistic effect exists whenever the action of an active ingredient combination is greater than the sum of the actions of the individual components. The action to be expected E for a given active ingredient combination obeys the so-called COLBY formula and can be calculated as follows (COLBY, S. R. “Calculating synergistic and antagonistic responses of herbicide combination”. Weeds, Vol. 15, pages 20-22; 1967): ppm=milligrams of active ingredient (=a.i.) per liter of spray mixture X=% action by active ingredient A) using p ppm of active ingredient Y=% action by active ingredient B) using q ppm of active ingredient. According to COLBY, the expected (additive) action of active ingredients A)+B) using p+q ppm of active ingredient is If the action actually observed (O) is greater than the expected action (E), then the action of the combination is super-additive, i.e. there is a synergistic effect. In mathematical terms, synergism corresponds to a positive value for the difference of (O-E). In the case of purely complementary addition of activities (expected activity), said difference (O-E) is zero. A negative value of said difference (O-E) signals a loss of activity compared to the expected activity. Pyrenophora teres ([…]): Conidia of the fungus from cryogenic storage are directly mixed into nutrient broth (PDB potato dextrose broth). After placing a (DMSO) solution of the test compounds into a microtiter plate (96-well format) the nutrient broth containing the fungal spores is added.

[5] = single active ingredient 0.0625 mg/L (ppm ai)
[6] = single active ingredient 0.125 mg/L (ppm ai)
[7] = single active ingredient 0.25 mg/L (ppm ai)
[8] = single active ingredient 0.5 mg/L (ppm ai)
[9] = single active ingredient 0.0313 mg/L (ppm ai)
[10] = single active ingredient 0.0039 mg/L (ppm ai)
[11] = single active ingredient 0.0078 mg/L (ppm ai)
[12] = single active ingredient 0.0156 mg/L (ppm ai)

Fc1ccc([C@]2(Cn3cncn3)O[C@H]2c2ccccc2Cl)cc1 (racemic) [Epoxiconazole, epoxiconazole]
Observed control in % (% Cobs) [1, 5]: 0.0% | Observed control in % (% Cobs) [1, 6]: 24.3% | Observed control in % (% Cobs) [1, 7]: 28.9% | Observed control in % (% Cobs) [2, 5]: 6.8% | Observed control in % (% Cobs) [2, 6]: 18.0% | Observed control in % (% Cobs) [2, 7]: 36.8% | Observed control in % (% Cobs) [2, 8]: 51.8%

CO/C=C(/C(=O)OC)c1ccccc1Oc1cc(Oc2ccccc2C#N)ncn1 [Azoxystrobin, azoxystrobin]
Observed control in % (% Cobs) [3, 9]: 44.8% | Observed control in % (% Cobs) [3, 5]: 76.4%

N#Cc1c(Cl)c(Cl)c(Cl)c(C#N)c1Cl [Chlorothalonil, chlorothalonil]
Observed control in % (% Cobs) [3, 9]: 7.6% | Observed control in % (% Cobs) [3, 5]: 8.2% | Observed control in % (% Cobs) [3, 6]: 9.9% | Observed control in % (% Cobs) [2, 10]: 3.0% | Observed control in % (% Cobs) [2, 11]: 0.0% | Observed control in % (% Cobs) [2, 12]: 0.7% | Observed control in % (% Cobs) [2, 9]: 0.0%

Cc1nnc(Cl)c(-c2c(F)cc(F)cc2F)c1-c1ccc(Cl)nc1 [Compound A-1.1, 3-chloro-5-(6-chloro-pyridin-3yl)-6-methyl-4-(2,4,6-trifluoro-phenyl)-pyridazine]
melting point: 182 to 183 °C | Observed control in % (% Cobs) [1, 7]: 13.3% and 7.0% | Observed control in % (% Cobs) [1, 8]: 28.4% and 39.9% | Observed control in % (% Cobs) ([1]; single active ingredient 1.0 mg/L (ppm ai)): 38.8% | Observed control in % (% Cobs) [3, 9]: 6.7% | Observed control in % (% Cobs) [3, 5]: 3.5% and 5.1% | Observed control in % (% Cobs) [3, 7]: 51.3% and 56.5% | Observed control in % (% Cobs) [2, 12]: 1.4% and 0.3% and 1.6% and 3.4% | Observed control in % (% Cobs) [2, 9]: 3.7% and 5.3% and 6.3% | Observed control in % (% Cobs) [2, 5]: 14.9% and 13.0% and 15.1% and 13.7% | Observed control in % (% Cobs) [2, 6]: 59.1% and 67.2% and 58.5% and 80.1%

Cc1nnc(Cl)c(-c2c(F)cccc2Cl)c1-c1ccc(Cl)nc1 [Compound A-1.2, 3-chloro-5-(6-chloro-pyridin-3-yl)-6-methyl-4-(2-chloro-6-fluoro-phenyl)-pyridazine]
melting point: 166 to 167 °C

COc1nnc(C)c(-c2ccc(Cl)nc2)c1-c1c(F)cc(F)cc1F [Compound A-1.3, 4-(6-chloro-pyridin-3-yl)-6-methoxy-3-methyl-5-(2,4,6-trifluoro-phenyl)-pyridazine]
melting point: 123 to 124 °C

CC(C1CC1)C(O)(Cn1cncn1)c1ccc(Cl)cc1 (centres unmarked) [Cyproconazole, cyproconazole]
Observed control in % (% Cobs) [4, 5]: 0.0% | Observed control in % (% Cobs) [4, 6]: 0.0% | Observed control in % (% Cobs) [4, 7]: 15.1% | Observed control in % (% Cobs) [2, 10]: 2.3% | Observed control in % (% Cobs) [2, 11]: 2.8% | Observed control in % (% Cobs) [2, 12]: 4.7% | Observed control in % (% Cobs) [2, 9]: 1.9% | Observed control in % (% Cobs) [2, 5]: 0.6%

Cc1cc(C2CC2)nc(Nc2ccccc2)n1 [Cyprodinil, cyprodinil]
Observed control in % (% Cobs) [4, 5]: 23.8% | Observed control in % (% Cobs) [4, 6]: 45.1%

CC1COC(Cn2cncn2)(c2ccc(Oc3ccc(Cl)cc3)cc2Cl)O1 (centres unmarked) [Difenoconazole, difenoconazole]
Observed control in % (% Cobs) [1, 5]: 37.6% | Observed control in % (% Cobs) [1, 6]: 36.9% | Observed control in % (% Cobs) [3, 12]: 66.5%

OC(Cc1ccccc1Cl)(Cn1nc[nH]c1=S)C1(Cl)CC1 (centres unmarked) [Prothioconazole, prothioconazole]
Observed control in % (% Cobs) [4, 5]: 28.9% | Observed control in % (% Cobs) [4, 6]: 50.1% | Observed control in % (% Cobs) [4, 7]: 66.6% | Observed control in % (% Cobs) [3, 12]: 22.0% | Observed control in % (% Cobs) [3, 9]: 59.1%

CN1COCN(Cc2cnc(Cl)s2)/C1=N\[N+](=O)[O-] [Thiomethoxam, thiamethoxam]
Observed control in % (% Cobs) [4, 5]: 0.0% | Observed control in % (% Cobs) [4, 6]: 0.0% | Observed control in % (% Cobs) [4, 7]: 0.0% | Observed control in % (% Cobs) [2, 10]: 1.8% | Observed control in % (% Cobs) [2, 11]: 1.6% | Observed control in % (% Cobs) [2, 12]: 0.0% | Observed control in % (% Cobs) [2, 9]: 2.9% | Observed control in % (% Cobs) [2, 5]: 0.0%

mancozeb
Observed control in % (% Cobs) [1, 7]: 0.7%
